Measurements reported in patent US10226451B2, “Substituted bicyclic compounds as bromodomain inhibitors” (ZENITH EPIGENETICS LTD, priority 2013, dated 2019).

Key:
[1] = test system: OCI-3 AML cells xenograft; experiment: In vivo efficacy, acute myeloid leukemia xenograft model using OCI-3 AML cells; set-up: species or system mouse; conditions: OCI-3 AML xenograft, nu/nu mice, oral dosing, tumor growth inhibition
Method: OCI-3 AML cells (DMSZ) were grown under standard cell culture conditions and (NCr) nu/nu fisol strain of female mice age 6-7 weeks were injected with 10×10^6 cells/animal in 100 μL PBS+100 μL Matrigel in the lower left abdominal flank. By approximately day 18-21 after OCI-3 AML cells injection, mice were randomized based on tumor volume (L×W×H)/2) of average ˜100-300 mm^3. Mice were dosed orally with compound at 30 mg/kg b.i.d on a continuous dosing schedule and at 2.5 to 45 mg/kg q.d. on a 5 day on and 2 day off dosing schedule in EA006 formulation at 10 mL/kg body weight dose volume. Tumor measurements were taken with electronic micro calipers and body weights measured on alternate days beginning from dosing period. The average tumor volumes, percent Tumor Growth Inhibition (TGI) and % change in body weights were compared relative to Vehicle control animals. The means, statistical analysis and the comparison between groups were calculated using Student's t-test in Excel.

[2] = test system: hApoA-I mRNA in Huh7 cells; experiment: Up-regulation of hApoA-1 mRNA transcription in Huh7 cells; format: cell-based, Human; conditions: EC170, Huh7 cells, 48 h
Method: In this example, hApoA-I mRNA in tissue culture cells was quantitated to measure the transcriptional up-regulation of hApoA-I when treated with a compound of the present disclosure.
Huh7 cells (2.5×10^5 per well) were plated in a 96-well plate using 100 μL DMEM per well, (Gibco DMEM supplemented with penicillin/streptomycin and 10% FBS), 72 h before the addition of the compound. The cells are treated with increasing concentrations of the compound or DMSO (0.1%), and incubated at 37° C., 5% CO2 for 48 h. Spent media was removed from the Huh-7 cells and placed on ice for immediate use with the “LDH cytotoxicity assay Kit II” from Abcam. The cells remaining in the plate were rinsed with 100 μL PBS. Cells were harvested using the mRNA Catcher PLUS kit according to manufacturer's instructions. The eluted mRNA was then used in a one-step quantitative real-time PCR reaction, using components of the RNA UltraSense™ One-Step Kit (Life Technologies) together with Applied Biosystems TaqMan® primer-probes for hApoA-I and Cyclophilin. Real-time PCR plates were run on a ViiA™7 real time PCR machine (Applied Biosystems), data was analyzed, normalizing the Ct values for hApoA-1 to an internal control, prior to determining the fold induction of each unknown sample, relative to the control.

MV4-11 cells xenograft = experiment: In vivo efficacy, acute myeloid leukemia xenograft model using MV4-11 cells; set-up: species or system mouse; conditions: MV4-11 xenograft, nu/nu mice, oral dosing, tumor growth inhibition
Method: MV4-11 cells (ATCC) were grown under standard cell culture conditions and (NCr) nu/nu fisol strain of female mice age 6-7 weeks were injected with 5×10^6 cells/animal in 100 μL PBS+100 μL Matrigel in the lower left abdominal flank. By approximately day 18-21 after MV4-11 cells injection, mice were randomized based on tumor volume (L×W×H)/2) of average ˜100-300 mm^3. Mice were dosed orally with compound at 5 to 120 mg/kg b.i.d and/or q.d. on a continuous dosing schedule and at 2.5 to 85 mg/kg q.d. on a 5 day on 2 day off, 100 mg/kg q.d. on a 4 day on and 3 day off, 135 mg/kg q.d. on a 3 day on and 4 day off, 180 mg/kg on a 2 day on and 5 day off and 240 mg/kg on a 1 day on and 6 days off dosing schedules in EA006 formulation at 10 mL/kg body weight dose volume. Tumor measurements were taken with electronic micro calipers and body weights measured on alternate days beginning from dosing period. The average tumor volumes, percent Tumor Growth Inhibition (TGI) and % change in body weights were compared relative to Vehicle control animals. The means, statistical analysis and the comparison between groups were calculated using Student's t-test in Excel.

Human AML MV-4-11 cells = experiment: Inhibition of cell proliferation in MV4-11 cells (CellTiter Aqueous One); format: cell-based; conditions: 72 h
Method in brief: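 MV4-11 cells at 5×10^4/well in IMDM with 10% FBS were exposed to increasing compound concentrations or 0.1% DMSO, in triplicate, for 72 h at 37 °C. A further 3-4 h with CellTiter Aqueous One reagent followed. A490, blank-corrected and expressed relative to DMSO, gave IC50.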

[3] = target: T1, Brd4 bromodomain 1 (BRD4(1)) (Homo sapiens, UniProt O60885); experiment: Inhibition of tetra-acetylated histone H4 binding to Brd4 bromodomain 1 (HTRF/FRET); conditions: tetra-acetylated histone H4 peptide, His-tagged bromodomain 200 nM, 2 h
T1 construct: made in house; host or cells: E. coli BL21(DE3)
Method in brief: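 Inhibition was read as a drop in 665 nm relative to 620 nm HTRF signal after 2 h at room temperature, with IC50 from dose-response curves in duplicate wells. Reactions held 200 nM E. coli-expressed His-tagged bromodomain and 25-50 nM biotinylated tetra-acetylated histone H4 peptide. Buffer was 30 mM HEPES pH 7.4 with KF, CHAPS, BSA and 0.2% DMSO.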

For Cc1noc(C)c1-c1cc(-c2c(C)nn(C)c2C)c2c(c1)[nH]c(=O)n2C [Example Compound 9, 5-(3,5-dimethylisoxazol-4-yl)-1-methyl-7-(1,3,5-trimethyl-1H-pyrazol-4-yl)-1H-benzo[d]imidazol-2(3H)-one], the In vivo activity [1] was “Active”, the ApoA-1 activity [2] was “+++ (EC170 value less than or equal to 0.3 μM were deemed to be highly active (+++))” and the In vivo activity (MV4-11 cells xenograft) was “Active”. It also gave an IC50 (Human AML MV-4-11 cells) of at most 300 nM and an IC50 [3] of at most 300 nM.
